Consider 12 molecules from PubChem BioAssay (NCI).

Some test systems named below: KM12 colon; DLD-1 colon; DMS 114 small cell lung; OVCAR-3 ovarian; LXFL 529 NSCLC; M19-MEL melanoma; T-47D breast; NCI/ADR-RES ovarian; HS 578T breast; MCF7 breast; HCT-15 colon; DMS 273 small cell lung.
Assay in all cases: NCI anticancer screen, dose series, 48 h

“And” between values parts separate entries of the source, which are not always exact repeats. Identical values can stand only once.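 Assay format: 96-well plates, 48-hour exposure. At the GI50, growth is halved. TGI: concentration producing complete growth inhibition.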 Where a SMILES comes first, the peptide text is derived from it. [ ]: non-standard residue; d: D form. The star is where a group is joined. Bn2Val = CC(C)[C@@H](C(=O)*)N(Cc1ccccc1)Cc1ccccc1; NH(3,4-diMeO-benzyl) = COc1ccc(CN*)cc1OC; NMeV = CN[C@H](C(=O)O)C(C)C; dNMeA = CN[C@H](C)C(=O)O Some results are limits rather than exact numbers.

For the molecule `CCCCCCCCCCCCCCC1OC(=O)c2ccccc21` (stereo unspecified), the TGI is over 100 µM in the assay on KM12 colon; over 100 µM in the assay with DLD-1 colon; 90.4 µM with DMS 114 small cell lung; over 100 µM in the assay with OVCAR-3 ovarian; over 100 µM in the assay with LXFL 529 NSCLC; over 100 µM with M19-MEL melanoma.

For the molecule `CCCNC(=O)OCc1c(COC(=O)NCCC)c(-c2ccc(Cl)c(Cl)c2)n2c1CCC2`, the TGI in the assay on KM12 colon was 28.5 µM; in the assay on OVCAR-3 ovarian, 41.5 µM; in the assay on T-47D breast, over 100 µM; in the assay on NCI/ADR-RES ovarian, 17.4 µM; in the assay on HS 578T breast, 26.2 µM; in the assay with MCF7 breast, 19.8 µM. The same molecule gave a TGI in the assay on HCT-15 colon of 19.8 µM.

As for `Cc1c(N2C(=O)/C(=C\c3ccccc3O)N=C2c2ccccc2)c(=O)n(-c2ccccc2)n1C`, the GI50 in the assay on KM12 colon was 21 µM; with OVCAR-3 ovarian, over 100 µM; in the assay on T-47D breast, 16.3 µM; with NCI/ADR-RES ovarian, 76.3 µM; with HS 578T breast, 27.9 µM; with MCF7 breast, 3.83 µM. Moreover, the GI50 in the assay with HCT-15 colon is over 100 µM. Further, the TGI in the assay on KM12 colon is over 100 µM; with OVCAR-3 ovarian, over 100 µM; in the assay on T-47D breast it was over 100 µM; in the assay with NCI/ADR-RES ovarian, over 100 µM; in the assay on HS 578T breast it was 75.3 µM; with MCF7 breast, over 100 µM. In the assay with HCT-15 colon, this molecule came in with a TGI of over 100 µM.

As to `N#Cc1nc(-c2ccc(F)cc2)oc1S(=O)(=O)N1CCOCC1`, the GI50 is 12 µM in the assay with KM12 colon; 1.75 µM in the assay with OVCAR-3 ovarian; 2.11 µM in the assay with T-47D breast; 13.4 µM in the assay on NCI/ADR-RES ovarian; 15.1 µM in the assay with HS 578T breast; 2.65 µM in the assay on MCF7 breast. Further, the GI50 in the assay with HCT-15 colon is 1.98 µM. For the same molecule, the TGI in the assay on KM12 colon worked out at 26.3 µM; with OVCAR-3 ovarian, 3.18 µM; in the assay with T-47D breast, 5.23 µM; in the assay with NCI/ADR-RES ovarian it was 47.2 µM; with HS 578T breast, 45.4 µM; with MCF7 breast, 11.7 µM. This molecule also yielded a TGI in the assay on HCT-15 colon of 5.37 µM.

In the case of `CC(C)(C)C1=NC(S)NC(CCC(=O)Nc2ccccc2[N+](=O)[O-])=C1` (stereo unspecified), the TGI in the assay with KM12 colon, in the assay on DLD-1 colon, with DMS 114 small cell lung, in the assay on OVCAR-3 ovarian, with LXFL 529 NSCLC and in the assay on M19-MEL melanoma was over 100 µM in each case. In the assay on HCT-15 colon, this molecule gave a TGI of over 100 µM.

Turning to `OCCNCO`, the TGI in the assay on KM12 colon, in the assay with OVCAR-3 ovarian, in the assay with DMS 273 small cell lung, in the assay on LXFL 529 NSCLC, in the assay with M19-MEL melanoma and in the assay with HCT-15 colon was over 100 µM throughout.

For the molecule `C[C@@H]1Cc2c([nH]c3ccccc23)[C@@H](c2c(F)cc(/C=C/C(=O)O)cc2F)N1CC(C)(C)F`, the GI50 in the assay with KM12 colon is 11 µM; in the assay on OVCAR-3 ovarian, 13.8 µM; in the assay on T-47D breast it was 0.0916 µM; with NCI/ADR-RES ovarian, 14.7 µM; in the assay on HS 578T breast it was 12.8 µM; with HCT-15 colon, 8.14 µM. The TGI in the assay with KM12 colon worked out at 28.7 µM; with OVCAR-3 ovarian it was 29.1 µM; with T-47D breast, 51.3 µM; in the assay with NCI/ADR-RES ovarian, 36.5 µM; with HS 578T breast it was 45.4 µM; in the assay on MCF7 breast, 25.6 µM. In the assay on HCT-15 colon, the TGI came out at 24.3 µM.

As to `COc1ccc(CNC(=O)[C@@H](C)N(C)C(=O)[C@@H]2CCCN2C(=O)[C@H](C(C)C)N(C)C(=O)[C@@H](NC(=O)[C@H](C(C)C)N(Cc2ccccc2)Cc2ccccc2)C(C)C)cc1OC` (Bn2Val-V[NMeV]P[dNMeA]-{NH(3,4-diMeO-benzyl)}), the TGI in the assay with KM12 colon was 30 µM and 27.4 µM; in the assay on OVCAR-3 ovarian, 14.6 µM and 24.7 µM; in the assay on T-47D breast, 50 µM and 81.1 µM; with NCI/ADR-RES ovarian, 32.9 µM and 40.1 µM; with MCF7 breast it was 25.3 µM; with HCT-15 colon, 21.5 µM and 28.8 µM. Further, the GI50 in the assay with OVCAR-3 ovarian was 10 µM; in the assay on NCI/ADR-RES ovarian, 6.35 µM; in the assay on HS 578T breast, 19.5 µM; in the assay on HCT-15 colon, 5.98 µM.

Take `COC(=O)c1c(OC)cccc1C(=O)O`: the TGI with KM12 colon, in the assay on DMS 114 small cell lung, in the assay with OVCAR-3 ovarian, with DMS 273 small cell lung, with LXFL 529 NSCLC and with M19-MEL melanoma was over 100 µM each time. This molecule also had a TGI in the assay with HCT-15 colon of over 100 µM.

As for `CC(=O)c1ccc(N(/C=C/C(=O)C(F)(F)F)CC(=O)c2ccc(Cl)c(Cl)c2)cc1`, the GI50 was 12.8 µM in the assay on KM12 colon; 13.9 µM with OVCAR-3 ovarian; 26.4 µM in the assay on T-47D breast; 18.2 µM in the assay on NCI/ADR-RES ovarian; 20.3 µM in the assay on HS 578T breast; 15.3 µM with MCF7 breast. Also, the GI50 with HCT-15 colon was 13.4 µM. Moreover, the TGI with KM12 colon was found to be 27.1 µM; in the assay on OVCAR-3 ovarian, 27.5 µM; with T-47D breast it was 75.4 µM; in the assay on NCI/ADR-RES ovarian, 38.4 µM; with HS 578T breast it was 45.2 µM; in the assay with MCF7 breast it was 65.3 µM. For the same molecule, the TGI in the assay on HCT-15 colon amounted to 29.2 µM.

For the molecule `CNC(=O)c1cc(Oc2ccc3c(c2)sc2nc(-c4ccc(N)cc4)cn23)ccn1`, the GI50 with KM12 colon is 0.196 µM; in the assay on OVCAR-3 ovarian, 0.198 µM; with T-47D breast, 0.397 µM; in the assay with NCI/ADR-RES ovarian, 0.211 µM; in the assay on HS 578T breast, 0.224 µM; in the assay on MCF7 breast, 0.128 µM. For the same molecule, in the assay on HCT-15 colon, the GI50 was 0.122 µM. The TGI in the assay with KM12 colon was over 100 µM; with OVCAR-3 ovarian it was 0.67 µM; with T-47D breast, 57.6 µM; in the assay with NCI/ADR-RES ovarian it was over 100 µM; in the assay with HS 578T breast it was over 100 µM; in the assay with MCF7 breast, over 100 µM. The TGI with HCT-15 colon is over 100 µM.

Take `Cc1c(Cl)cccc1Nc1ncccc1C(=O)O`: the GI50 is over 100 µM in the assay on KM12 colon; 39.8 µM in the assay on OVCAR-3 ovarian; 68 µM with T-47D breast; 78.7 µM in the assay with NCI/ADR-RES ovarian; 63.1 µM in the assay on HS 578T breast; over 100 µM in the assay on MCF7 breast. Besides, the GI50 in the assay with HCT-15 colon was 38.1 µM. Moreover, the TGI with KM12 colon, with OVCAR-3 ovarian, in the assay with T-47D breast, in the assay on NCI/ADR-RES ovarian, with HS 578T breast and in the assay on MCF7 breast was over 100 µM throughout. Also, in the assay on HCT-15 colon, the TGI is over 100 µM.
